Measured values from patent publication US12409189B2, “STAUFEN1 agents and associated methods” (University of Utah Research Foundation, priority 2016, dated 2025).

Columns and labels:
Assay type in all cases: cell-based, human
Staufen1 = test: Western blot of Staufen1 in SH-SY5Y and ATXN2-Q22/58 knock-in cells; details: ATXN2-Q22/58 KI cells, RNAi
Procedure: (§1) SH-SY5Y cells were cultured in standard DMEM with 10% FBS and 1X penicillin/streptomycin in 5% CO2. Transfection of STAU1 siRNA or STAU1 ASO was accomplished using Lipofectamine transfection reagent using standard conditions. Cells were harvested 3-5 days post transfection.
(§2) Protein extracts were prepared by suspending cell pellets in SDS-PAGE sample buffer (Laemmli sample buffer) followed by boiling for 5 min. Equal amount of the extracts were subjected to Western blot analysis to determine the steady-state levels of proteins using the indicated antibodies. Protein extracts were resolved by SDS-PAGE and transferred to Hybond P membranes (Amersham Bioscience Inc., USA). After blocking with 5% skim milk in 0.1% Tween 20/PBS, the membranes were incubated with primary antibodies in 5% skim milk in 0.1% Tween 20/PBS for 2 hrs at room temperature or overnight at 4° C. After several washes with 0.1% Tween 20/PBS, the membranes were incubated with the corresponding secondary antibodies conjugated with HRP in 5% skim milk in 0.1% Tween 20/PBS for 2 hrs at room temperature. Following three additional washes with 0.1% Tween 20/PBS, signals were detected by using the Immobilon Western Chemiluminescent HRP Substrate (Millipore Inc., USA; cat #WBKLSO100) according to the manufacturer's protocol. The antibodies used included ATXN2 mAb [(1:3000), BD Biosciences Inc.; cat #611378], rabbit anti-Staufen antibody (Novus biologicals Inc., NBP1-33202), SQSTM1/p62 antibody (Cell signaling, #5114), LC3B Antibody (Novus biologicals Inc., NB100-2220), mTOR antibody (Cell signaling, #2972), Phospho-mTOR (Ser2448) antibody (Cell signaling #2971), β-Actin mAb conjugated with HRP [(1:10,000), Sigma Inc.; cat #A3858]. Secondary antibodies were horse anti-mouse IgG-HRP antibody (Vector laboratories, PI-2000), and goat anti-rabbit IgG-HRP antibody (Vector laboratories, PI-1000).
(§3) For over-expression of recombinant proteins, SH-SY5Y cells were seeded on 100 mm or 6 well dishes and incubated overnight. The cells were then transfected with plasmid DNAs and harvested 48 hrs post-transfection and processed as two aliquots for protein and RNA analyses. For siRNA experiments, cells were transfected with siRNAs using lipofectamine 2000, and lymphoblastoid B cells (1×10^6) were electroporated with siRNAs using the Neon transfection system (Invitrogen Inc., USA) according to the manufacturer's protocol and seeded on 6 well plates.
(§4) Preparation of protein lysates and western blot analyses. […] Signals were detected by using the Immobilon Western Chemiluminescent HRP Substrate (Millipore Inc., USA; cat #WBKLSO100) according to the manufacturer's protocol. The intensity of proteins was determined by using the ImageJ software analyses system and the relative protein abundances were expressed as ratios to β-actin.

[1] = test system: autophagic pathway proteins (mTOR, P-mTOR, p62, LC3-II); test: Western blot of autophagic pathway proteins in SH-SY5Y and ATXN2-Q22/58 knock-in cells
Procedure: as §1
as §2, with “The antibodies used included ATXN2 mAb [(1:3000), BD Biosciences Inc.; cat #611378], rabbit anti-Staufen antibody (Novus biologicals Inc., NBP1-33202), SQSTM1/p62 antibody (Cell signaling, #5114), LC3B Antibody (Novus biologicals Inc., NB100-2220), mTOR antibody (Cell signaling, #2972), Phospho-mTOR (Ser2448) antibody (Cell signaling #2971), β-Actin mAb conjugated with HRP [(1:10,000), Sigma Inc.; cat #A3858].” left out
as §3
Preparation of protein lysates and western blot analyses. Cellular extracts were prepared by a single-step lysis method. […] Equal amounts of the extracts were used for western blot analyses. […] Only supernatants were used for western blotting. Protein extracts were resolved by SDS-PAGE and transferred to Hybond P membranes (Amersham Bioscience Inc., USA). After blocking with 5% skim milk in 0.1% Tween 20/PBS, the membranes were processed for immunostaining using corresponding primary and secondary antibodies. Signals were detected by using the Immobilon Western Chemiluminescent HRP Substrate (Millipore Inc., USA; cat #WBKLSO100) according to the manufacturer's protocol. The intensity of proteins was determined by using the ImageJ software analyses system and the relative protein abundances were expressed as ratios to β-actin.

mTOR and phospho-mTOR = test: Western blot of mTOR and phospho-mTOR after mTOR RNAi; details: SH-SY5Y and ATXN2-Q22/58 KI cells, 4 days post-transfection
From the text: siRNAs. The siRNAs used in this study were: All Star Negative Control siRNA (Qiagen Inc., USA; Cat #1027280), human siATXN2 [Hs_ATXN2_2 (Qiagen Inc., USA; Cat #SI00308196)], human siSTAU1: 5′-CCUAUAACUACAACAUGAGdTdT-3′ (SEQ ID NO: 3), and simTOR: 5′-GAGCCUUGUUGAUCCUUAA-3′ (SEQ ID NO: 4). Staufen1 and mTOR siRNA oligonucleotides were synthesized by Invitrogen Inc., USA. The oligonucleotides were deprotected and the complementary strands were annealed.
as §3, §4

In the case of “5′-GAGCCUUGUUGAUCCUUAA-3′ (listed as RNA, chemistry not given here; listed as Homo sapiens) [simTOR, mTOR siRNA synthesized by Invitrogen]”, the Staufen1 abundance (Staufen1) is reported as “reduced Staufen1”, the autophagic pathway proteins ([1]; ATXN2-Q22/58 knock-in cells, RNAi transfection) is reported as “improves autophagy marker proteins” and the “Staufen1 and autophagic pathway protein component levels in control cells” value ([1]; control SH-SY5Y cells, mTOR RNAi, 4 days post-transfection) is reported as “without affecting those levels”. For the same substance, the “mTOR and phospho-mTOR levels” value (mTOR and phospho-mTOR) was “depletion”.
